Legend:
SARS-CoV-2 = assay: microbe, parasite or virus in culture; format: cell-based; settings: for EC50: Severe acute respiratory syndrome coronavirus 2, 48 h, read-out: EC50, antiviral effect on SARS-CoV-2
[1] = system: human coronavirus 229E (HCoV-229E); assay: microbe, parasite or virus in culture; format: cell-based; settings: for IC50: Human coronavirus 229E, A549, read-out: IC50, antiviral effect on HCoV-229E
[2] = 1 μM, 30 min, 37 °C
[3] = rat, in vivo
in vivo [4] = settings: male, Wistar Albino, rat, po, 10 mg/kg
in vivo [5] = settings: female, Wistar Albino, rat, po

| SMILES | EC50 (SARS-CoV-2) [µM] | IC50 [1] [µM] | selectivity index, SARS-CoV-2 (SARS-CoV-2) | also measured |
| --- | --- | --- | --- | --- |
| O=c1cc(OCCOc2ccnc(SCc3ccc(F)cc3)n2)c2cc(F)ccc2o1 [5c, 6-Fluoro-4-(2-((2-((4-fluorobenzyl)thio)pyrimidin-4-yl)oxy)ethoxy)-2H-chromen-2-one] | > 50 | > 25 |  |  |
| Cc1cccc(CSc2nccc(OCCOc3cc(=O)oc4ccccc34)n2)c1 [5e, 4-(2-((2-((3-Methylbenzyl)thio)pyrimidin-4-yl)oxy)ethoxy)-2H-chromen-2-one] | 6.59 ± 0.28 | 24.4 | 11.4 | metabolic stability against rat liver microsomes [2]: showed metabolic stability; selectivity index, HCoV-229E [1]: 3.06; metabolic stability against human liver microsomes (1 μM, 30 min, 37 °C): showed metabolic stability; compound found to be stable in human liver microsomes (human): > 50% |
| O=c1cc(OCCCOc2ccnc(SCc3ccc(F)cc3)n2)c2cc(F)ccc2o1 [5d, 6-Fluoro-4-(3-((2-((4-fluorobenzyl)thio)pyrimidin-4-yl)oxy)propoxy)-2H-chromen-2-one] | 14.3 ± 0.14 | 15.4 |  | GHS classification category ([3]; female, Wistar Albino): Category-4; clinical signs of toxicity and gross pathological changes ([3]; po, 300 mg/kg): no signs of toxicity; Cmax (in vivo [4]): 220 ng/mL; half-life (in vivo [4]): 73.3 h; LD50 (in vivo [5]): 500 to 1000 mg/kg |
| Cc1cccc(CSc2nccc(OCCCOc3cc(=O)oc4ccc(F)cc34)n2)c1 [5h, 6-Fluoro-4-(3-((2-((3-methylbenzyl)thio)pyrimidin-4-yl)oxy)propoxy)-2H-chromen-2-one] | > 50 | > 25 |  |  |
| Cc1cccc(CSc2nccc(OCCCOc3cc(=O)oc4ccccc34)n2)c1 [5f, 4-(3-((2-((3-Methylbenzyl)thio)pyrimidin-4-yl)oxy)propoxy)-2H-chromen-2-one] | > 50 | > 25 | <1 |  |
| O=c1cc(OCCOc2ccnc(SCc3ccc(F)cc3)n2)c2ccccc2o1 [5a, 4-(2-((2-((4-Fluorobenzyl)thio)pyrimidin-4-yl)oxy)ethoxy)-2H-chromen-2-one] | > 50 | > 25 |  |  |
| O=c1cc(OCCOc2ccnc(SCc3ccc(Cl)cc3)n2)c2ccccc2o1 [5i, 4-(2-((2-((4-Chlorobenzyl)thio)pyrimidin-4-yl)oxy)ethoxy)-2H-chromen-2-one] | > 50 | > 25 | <1 |  |
| Cc1cccc(CSc2nccc(OCCOc3cc(=O)oc4ccc(F)cc34)n2)c1 [5g, 6-Fluoro-4-(2-((2-((3-methylbenzyl)thio)pyrimidin-4-yl)oxy)ethoxy)-2H-chromen-2-one] | > 50 | > 25 |  |  |
| O=c1cc(OCCCOc2ccnc(SCc3ccc(F)cc3)n2)c2ccccc2o1 [5b, 4-(3-((2-((4-Fluorobenzyl)thio)pyrimidin-4-yl)oxy)propoxy)-2H-chromen-2-one] | > 50 | > 25 |  |  |
